Values joined by “and” are separate entries in the source; they are usually repeats but may differ in a detail not shown here. Equal values may be shown once. Read-outs that look alike come from different tables or passages of the source.
How the values were obtained:
[1] = molecular target: SERT (Homo sapiens (Human), UniProt P31645); assay: Off-target binding, SERT
From the text: (§1) The results are set forth below.

[2] = molecular target: hA1AR (Homo sapiens (Human), UniProt P30542); assay: Radioligand binding at hA1AR, CHO cell membranes, [3H]R-PIA; settings: read-out: hA1AR % inhibition
[3] = molecular target: Alpha 2C adrenergic receptor (Homo sapiens (Human), UniProt P18825); assay: Off-target binding, α2C
From the text: as §1

[4] = molecular target: mA3AR (Mus musculus (Mouse), UniProt Q61618); assay: Competition binding at mA3AR, HEK293 cell membranes
[5] = molecular target: hA2AAR (Homo sapiens (Human), UniProt P29274); assay: Radioligand binding at hA2AAR, HEK293 cell membranes, [3H]CGS21680; settings: read-out: hA2AAR % inhibition
[6] = molecular target: mA2AAR (Mus musculus (Mouse), UniProt Q60613); assay: Competition binding at mA2AAR, HEK293 cell membranes; settings: read-out: A2AAR % inhibition, mouse data (m) (converted)
[7] = molecular target: human DAT (Homo sapiens (Human), UniProt Q01959); assay: Radioligand ([3H]WIN35428) binding at the dopamine transporter; settings: for Ki: off-target binding
[8] = Stability in simulated fluids (gastric, intestinal); type: in vitro ADME
From the text: In vitro stability parameters for selected compounds are set forth in Table 6, in accordance with an embodiment of the invention.

[9] = molecular target: Alpha 1B adrenergic receptor (Homo sapiens (Human), UniProt P35368); assay: Off-target binding, α1B
From the text: as §1

[10] = Stability in liver microsomes, mouse; type: in vitro ADME; settings: liver microsomes, read-out: Stability in liver microsomes (t1/2, min): Mouse
[11] = test system: muscarinic, adrenergic, dopamine, GABA, histamine, opiate, serotonin receptors and transporters; assay: Off-target binding panel (receptors and transporters of Table 5); settings: for Interactions at other receptors of the off-target panel: 10 μM
From the text: as §1

[12] = Stability in liver microsomes, human; type: in vitro ADME; settings: liver microsomes, read-out: Stability in liver microsomes (t1/2, min): Human
[13] = Stability in liver microsomes, rat; type: in vitro ADME; settings: liver microsomes, read-out: Stability in liver microsomes (t1/2, min): Rat
[14] = molecular target: α1D adrenergic receptor (Homo sapiens (Human), UniProt P25100); assay: Off-target binding, α1D
From the text: as §1

[15] = test system: CYP1A2, CYP2C9, CYP2C19, CYP2D6, CYP3A4; assay: Inhibition of 5 CYP isozymes; type: in vitro ADME; settings: human
[16] = molecular target: Alpha 2A adrenergic receptor (Homo sapiens (Human), UniProt P08913); assay: Off-target binding, α2A
From the text: as §1

[17] = test system: chronic constriction injury model of neuropathic pain; assay: CCI model of neuropathic pain, reversal of mechano-allodynia; type: in vivo, mice; settings: for Max. effect Emax (% ± SEM) / Time of peak protection: ipsilateral hind paw; for Efficacy in reversing NP in vivo (of full reversal at peak effect): CCI model
[18] = molecular target: hH4 histamine receptor (Homo sapiens (Human), UniProt Q9H3N8); assay: Off-target binding, H4
From the text: as §1

[19] = molecular target: hM2 muscarinic receptor (Homo sapiens (Human), UniProt P08172); assay: Off-target binding, M2
[20] = molecular target: h5HT2C (Homo sapiens, UniProt P28335); assay: Off-target binding, 5HT2C
[21] = molecular target: DOR opiate receptor (Homo sapiens (Human), UniProt P41143); assay: Off-target binding, DOR
[22] = molecular target: r Sigma 2 (Rattus norvegicus (Rat), UniProt Q5U3Y7); assay: Off-target binding, Sigma-2; settings: for Ki: off-target binding
From the text: as §1

[23] = molecular target: h Beta 3 adrenergic receptor (Homo sapiens (Human), UniProt P13945); assay: Off-target binding, β3
[24] = molecular target: PBR (Homo sapiens (Human), UniProt P30536); assay: Off-target binding, PBR; settings: for Ki: off-target binding
From the text: as §1

[25] = molecular target: Alpha 2B adrenergic receptor (Homo sapiens (Human), UniProt P18089); assay: Off-target binding, α2B
From the text: as §1

[26] = molecular target: h5HT2B (Homo sapiens (Human), UniProt P41595); assay: Off-target binding, 5HT2B
[27] = molecular target: h5HT1A (Homo sapiens (Human), UniProt P08908); assay: Off-target binding, 5HT1A
[28] = molecular target: r Sigma 1 (Rattus norvegicus (Rat), UniProt Q9R0C9); assay: Off-target binding, Sigma-1
From the text: as §1

[29] = test system: C57BL/6J mice; assay: Acute liver toxicity, oral gavage; settings: 50 mg/kg oral gavage, 24 h
[30] = test system: chronic constriction injury (CCI) model, mechano-allodynia; assay: Morphine analgesic tolerance in CCI model, co-administration with A3AR agonist; type: in vivo, mice
[31] = Aqueous solubility; type: physicochemical
[32] = Bioavailability / plasma pharmacokinetics; type: in vivo; settings: rat, male SD rats
Protocol: Male SD rats were dosed intravenously at 1 mg/kg and orally at 1, 3, and 10 mg/kg. Plasma concentration as a function of time is depicted in FIG. 15.

[33] = % Unbound in plasma, mouse; type: in vitro ADME
[34] = test system: C57BL/6J mice; settings: mouse, in vivo, 50 mg/kg
[35] = molecular target: mA1AR (Mus musculus (Mouse), UniProt Q60612); assay: Competition binding at mA1AR, HEK293 cell membranes; settings: read-out: A1AR % inhibition, mouse data (m)
[36] = test system: 5 CYP isozymes (1A2, 2C9, 2C19, 2D6, 3A4); assay: Inhibition of 5 CYP isozymes; type: in vitro ADME
[37] = test system: Sprague Dawley rats; assay: Toxicity of MRS5698 dosed by gavage; type: in vivo, rat; settings: up to 150 mg/kg by gavage
Protocol: The formulation was dosed at up to 150 mg/kg by gavage to Sprague Dawley rats.

[38] = test system: morphine-dependent rats; settings: naloxone-precipitated withdrawal in morphine-dependent rats; cited from earlier work
[39] = simulated gastric fluid, read-out: Stability in simulated fluids (t1/2, min): Gastric
[40] = simulated intestinal fluid, read-out: Stability in simulated fluids (t1/2, min): Intestinal

Sequence of r Sigma 2 (Q5U3Y7 whole entry): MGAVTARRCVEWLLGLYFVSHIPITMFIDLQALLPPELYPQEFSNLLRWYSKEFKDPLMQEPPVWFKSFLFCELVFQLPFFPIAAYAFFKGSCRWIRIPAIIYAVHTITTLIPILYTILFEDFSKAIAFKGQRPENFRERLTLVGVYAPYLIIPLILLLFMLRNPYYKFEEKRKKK
Sequence of Alpha 2C adrenergic receptor (P18825 whole entry): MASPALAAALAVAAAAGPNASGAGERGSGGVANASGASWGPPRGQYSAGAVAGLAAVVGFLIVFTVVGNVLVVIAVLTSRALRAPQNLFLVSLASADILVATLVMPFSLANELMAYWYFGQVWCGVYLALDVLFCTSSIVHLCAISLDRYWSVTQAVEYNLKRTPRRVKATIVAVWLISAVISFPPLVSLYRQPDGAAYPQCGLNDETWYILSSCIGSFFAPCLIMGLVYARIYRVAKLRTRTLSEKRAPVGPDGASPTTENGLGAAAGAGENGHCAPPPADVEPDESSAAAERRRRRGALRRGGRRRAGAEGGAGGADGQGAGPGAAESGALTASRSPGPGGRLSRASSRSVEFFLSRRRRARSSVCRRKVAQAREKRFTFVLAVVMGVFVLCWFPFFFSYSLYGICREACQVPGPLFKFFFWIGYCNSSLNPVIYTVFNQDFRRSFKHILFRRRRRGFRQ
Sequence of Alpha 2B adrenergic receptor (P18089 whole entry): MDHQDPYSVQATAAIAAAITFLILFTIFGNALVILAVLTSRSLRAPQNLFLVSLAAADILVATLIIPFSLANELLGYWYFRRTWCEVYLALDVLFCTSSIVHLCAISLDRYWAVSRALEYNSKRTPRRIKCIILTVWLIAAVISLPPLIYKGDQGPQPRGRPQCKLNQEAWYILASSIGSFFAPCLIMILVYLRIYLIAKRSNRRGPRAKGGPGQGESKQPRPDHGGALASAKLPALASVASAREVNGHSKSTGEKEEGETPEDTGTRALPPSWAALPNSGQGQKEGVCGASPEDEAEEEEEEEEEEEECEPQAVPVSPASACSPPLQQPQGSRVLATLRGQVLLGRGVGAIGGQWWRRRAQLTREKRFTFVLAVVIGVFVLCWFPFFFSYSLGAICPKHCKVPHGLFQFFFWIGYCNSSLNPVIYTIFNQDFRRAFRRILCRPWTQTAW
Sequence of human DAT (Q01959 whole entry): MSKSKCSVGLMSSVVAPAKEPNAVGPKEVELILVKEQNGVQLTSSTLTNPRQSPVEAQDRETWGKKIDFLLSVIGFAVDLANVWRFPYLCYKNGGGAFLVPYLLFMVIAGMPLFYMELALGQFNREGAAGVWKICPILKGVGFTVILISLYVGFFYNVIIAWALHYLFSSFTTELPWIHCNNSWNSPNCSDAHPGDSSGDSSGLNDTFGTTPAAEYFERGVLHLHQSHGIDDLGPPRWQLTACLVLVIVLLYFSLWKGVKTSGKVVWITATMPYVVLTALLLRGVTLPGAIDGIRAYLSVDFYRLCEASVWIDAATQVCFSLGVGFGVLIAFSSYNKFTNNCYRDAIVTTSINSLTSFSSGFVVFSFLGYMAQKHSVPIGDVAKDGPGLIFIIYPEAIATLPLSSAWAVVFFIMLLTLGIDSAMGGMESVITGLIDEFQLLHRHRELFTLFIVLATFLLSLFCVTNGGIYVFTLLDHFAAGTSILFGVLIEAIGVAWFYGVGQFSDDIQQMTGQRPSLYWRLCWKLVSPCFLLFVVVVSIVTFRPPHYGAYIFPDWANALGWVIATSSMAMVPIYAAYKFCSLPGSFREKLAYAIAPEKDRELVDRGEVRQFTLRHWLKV
Sequence of PBR (P30536 whole entry, species assumed): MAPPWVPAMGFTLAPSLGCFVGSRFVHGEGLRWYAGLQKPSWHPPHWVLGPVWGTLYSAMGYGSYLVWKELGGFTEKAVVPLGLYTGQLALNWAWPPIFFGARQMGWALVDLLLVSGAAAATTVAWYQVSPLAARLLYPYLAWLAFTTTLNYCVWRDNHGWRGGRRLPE
Sequence of hA2AAR (P29274 whole entry): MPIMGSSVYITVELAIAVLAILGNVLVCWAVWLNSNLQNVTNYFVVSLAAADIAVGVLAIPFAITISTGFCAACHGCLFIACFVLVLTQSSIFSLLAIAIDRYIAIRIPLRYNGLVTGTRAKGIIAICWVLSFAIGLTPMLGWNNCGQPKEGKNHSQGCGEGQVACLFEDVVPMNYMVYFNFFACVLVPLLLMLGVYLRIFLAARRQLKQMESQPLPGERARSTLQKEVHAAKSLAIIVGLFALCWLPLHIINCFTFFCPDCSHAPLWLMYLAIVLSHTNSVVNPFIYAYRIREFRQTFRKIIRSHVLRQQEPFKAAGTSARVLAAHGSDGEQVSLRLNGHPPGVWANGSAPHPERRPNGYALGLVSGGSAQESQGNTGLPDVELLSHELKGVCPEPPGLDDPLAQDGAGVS
Sequence of hA1AR (P30542 whole entry): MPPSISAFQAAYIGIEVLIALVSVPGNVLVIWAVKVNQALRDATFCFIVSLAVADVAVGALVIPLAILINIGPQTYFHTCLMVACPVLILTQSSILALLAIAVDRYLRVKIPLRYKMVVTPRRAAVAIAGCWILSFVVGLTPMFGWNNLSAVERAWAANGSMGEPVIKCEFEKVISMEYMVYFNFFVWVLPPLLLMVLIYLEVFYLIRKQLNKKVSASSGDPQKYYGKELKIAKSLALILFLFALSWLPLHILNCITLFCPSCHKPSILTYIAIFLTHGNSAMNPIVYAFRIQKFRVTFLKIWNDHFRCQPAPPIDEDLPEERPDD
Sequence of hH4 histamine receptor (Q9H3N8 whole entry): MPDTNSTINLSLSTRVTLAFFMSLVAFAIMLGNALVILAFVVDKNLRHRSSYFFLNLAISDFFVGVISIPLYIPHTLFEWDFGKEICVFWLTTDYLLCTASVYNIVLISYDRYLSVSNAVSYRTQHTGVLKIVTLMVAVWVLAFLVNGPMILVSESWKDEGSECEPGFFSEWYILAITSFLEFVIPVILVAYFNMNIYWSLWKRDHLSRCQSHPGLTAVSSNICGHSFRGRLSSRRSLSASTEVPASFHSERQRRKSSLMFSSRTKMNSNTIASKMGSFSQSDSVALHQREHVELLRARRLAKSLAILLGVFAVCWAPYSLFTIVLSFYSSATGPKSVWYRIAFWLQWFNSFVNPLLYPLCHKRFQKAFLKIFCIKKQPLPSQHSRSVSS
Sequence of r Sigma 1 (Q9R0C9 whole entry): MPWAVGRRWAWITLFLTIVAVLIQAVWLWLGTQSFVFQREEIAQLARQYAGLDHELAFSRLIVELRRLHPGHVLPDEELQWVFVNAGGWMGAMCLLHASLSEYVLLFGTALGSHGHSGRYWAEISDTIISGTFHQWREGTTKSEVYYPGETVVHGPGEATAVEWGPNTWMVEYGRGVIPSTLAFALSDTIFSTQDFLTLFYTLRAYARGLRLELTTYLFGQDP
Sequence of h5HT2B (P41595 whole entry): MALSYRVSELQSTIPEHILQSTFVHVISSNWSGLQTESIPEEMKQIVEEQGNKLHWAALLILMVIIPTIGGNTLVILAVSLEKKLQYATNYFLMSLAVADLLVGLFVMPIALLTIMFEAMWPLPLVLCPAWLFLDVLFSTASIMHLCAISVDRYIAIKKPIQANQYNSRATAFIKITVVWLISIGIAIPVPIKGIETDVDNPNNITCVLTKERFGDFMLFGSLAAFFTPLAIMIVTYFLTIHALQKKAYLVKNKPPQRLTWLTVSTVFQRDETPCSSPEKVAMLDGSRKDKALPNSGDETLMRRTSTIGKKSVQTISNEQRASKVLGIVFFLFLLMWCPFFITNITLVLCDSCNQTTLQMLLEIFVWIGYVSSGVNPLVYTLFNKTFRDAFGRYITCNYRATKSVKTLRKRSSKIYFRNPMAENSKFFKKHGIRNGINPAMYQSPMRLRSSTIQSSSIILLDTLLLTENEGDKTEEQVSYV
Sequence of h5HT1A (P08908 whole entry): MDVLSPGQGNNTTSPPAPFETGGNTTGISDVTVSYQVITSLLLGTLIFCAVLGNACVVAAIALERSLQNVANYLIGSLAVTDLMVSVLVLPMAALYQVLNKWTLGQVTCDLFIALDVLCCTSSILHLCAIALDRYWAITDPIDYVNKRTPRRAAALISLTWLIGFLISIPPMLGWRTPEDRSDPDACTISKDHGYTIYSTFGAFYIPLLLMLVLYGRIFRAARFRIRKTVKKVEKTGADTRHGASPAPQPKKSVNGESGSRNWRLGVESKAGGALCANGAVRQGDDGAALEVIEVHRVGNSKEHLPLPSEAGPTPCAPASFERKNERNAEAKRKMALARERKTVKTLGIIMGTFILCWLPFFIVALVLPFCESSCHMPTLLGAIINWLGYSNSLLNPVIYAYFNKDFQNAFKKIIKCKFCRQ
Sequence of h Beta 3 adrenergic receptor (P13945 whole entry): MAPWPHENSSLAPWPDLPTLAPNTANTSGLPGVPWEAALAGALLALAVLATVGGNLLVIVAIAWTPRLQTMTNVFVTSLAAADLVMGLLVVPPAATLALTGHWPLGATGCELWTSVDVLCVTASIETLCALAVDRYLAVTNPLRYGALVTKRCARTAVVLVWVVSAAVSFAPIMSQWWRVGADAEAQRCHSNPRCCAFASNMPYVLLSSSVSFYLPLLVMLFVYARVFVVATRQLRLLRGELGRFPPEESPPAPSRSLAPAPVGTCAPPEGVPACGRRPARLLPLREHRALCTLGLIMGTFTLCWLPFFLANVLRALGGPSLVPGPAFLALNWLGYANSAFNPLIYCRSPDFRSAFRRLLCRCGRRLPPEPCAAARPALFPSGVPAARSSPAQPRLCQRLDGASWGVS
Sequence of DOR opiate receptor (P41143 whole entry): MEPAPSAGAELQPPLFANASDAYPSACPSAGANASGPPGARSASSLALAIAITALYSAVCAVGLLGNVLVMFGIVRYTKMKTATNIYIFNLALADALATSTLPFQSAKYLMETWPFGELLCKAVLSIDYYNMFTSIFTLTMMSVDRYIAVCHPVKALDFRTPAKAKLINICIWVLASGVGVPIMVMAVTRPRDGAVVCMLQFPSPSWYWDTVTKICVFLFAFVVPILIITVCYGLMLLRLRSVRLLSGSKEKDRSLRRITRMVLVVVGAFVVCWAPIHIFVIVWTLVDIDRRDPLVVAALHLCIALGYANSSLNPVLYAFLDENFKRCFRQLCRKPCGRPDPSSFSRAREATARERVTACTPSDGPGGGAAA

## CNC(=O)[C@@]12C[C@@H]1[C@@H](n1cnc3c(NC)nc(C#Cc4cnccn4)nc31)[C@H](O)[C@@H]2O [Compound 7, (1S,2R,3S,4R,5S)-2,3-Dihydroxy-N-methyl-4-(6-(methylamino)-2-(pyrazin-2-ylethynyl)-9H-purin-9-yl)bicyclo[3.1.0]hexane-1-carboxamide]
[1]; read-out: Ki at SERT
  Ki: > 10 µM
[1]; read-out: Ki class at SERT
  Ki: > 10 µM
[2]
  inhibition at 10 µM: 37%
[3]; read-out: Ki at α2C
  Ki: 6.8 µM
[4]
  Ki: 0.068 ± 0.005 µM
[5]
  inhibition at 10 µM: 25 ± 9%
[6]
  inhibition at 10 µM: 12%
[7]; read-out: Ki at DAT
  Ki: 1.8 µM
[7]; read-out: Ki class at DAT
  Ki: 1 to 10 µM
[8]; [39]
  half-life: > 480 min
[8]; [40]
  half-life: > 480 min
[9]; read-out: Ki at α1B
  Ki: 9.4 µM
[9]; read-out: Ki class at α1B
  Ki: 1 to 10 µM
[10]
  half-life: > 145 min
[11]
  Off-target effects compared with MRS5698 and MRS5676: significantly fewer off-target effects
  Interactions at other receptors of the off-target panel: No interactions at other receptors
[12]
  half-life: 236 min
[13]
  half-life: > 145 min
[14]
  Ki: 4.3 µM
[15]
  IC50: > 10 µM
[16]
  Ki: 7.9 µM
[17]; 3 μmol/kg p.o., mice
  Max. effect Emax (% ± SEM): 100 ± 0.0%
  Time of peak protection: 1 h
[17]
  Efficacy in reversing NP in vivo (of full reversal at peak effect): ~100%

## CNC(=O)C12CC1C(n1cnc3c(NCc4cccc(Cl)c4)nc(C#Cc4ccc(F)c(F)c4)nc31)C(O)C2O (single isomer, unassigned) [MRS5698]
[3]; read-out: Ki at α2C
  Ki: 2 µM
[3]; read-out: Ki class at α2C
  Ki: 1 to 10 µM
[18]; read-out: Ki at H4
  Ki: 9.4 µM
[18]; read-out: Ki class at H4
  Ki: 1 to 10 µM
[19]; read-out: Ki at M2
  Ki: 5.4 µM
[19]; read-out: Ki class at M2
  Ki: 1 to 10 µM
[20]; Ki at 5HT2C
  Ki: 5.8 µM
[20]; Ki class at 5HT2C
  Ki: 1 to 10 µM
[21]; read-out: Ki at DOR
  Ki: 2.5 µM
[21]; read-out: Ki class at DOR
  Ki: 1 to 10 µM
[22]; read-out: Ki at Sigma-2 (σ2)
  Ki: 0.91 µM
[22]; read-out: Ki class at σ2
  Ki: < 1 µM
[23]; read-out: Ki at β3
  Ki: 5.8 µM
[23]; read-out: Ki class at β3
  Ki: 1 to 10 µM
[24]; read-out: Ki at PBR
  Ki: 0.34 µM
[24]; read-out: Ki class at PBR
  Ki: < 1 µM
[25]; read-out: Ki at α2B
  Ki: 2.9 µM and 4.8 µM
[25]; read-out: Ki class at α2B
  Ki: 1 to 10 µM
[26]; read-out: Ki at 5HT2B
  Ki: 2.6 µM
[26]; read-out: Ki class at 5HT2B
  Ki: 1 to 10 µM
[27]; read-out: Ki at 5HT1A
  Ki: 7.6 µM
[27]; read-out: Ki class at 5HT1A
  Ki: 1 to 10 µM

## CNC(=O)[C@@]12C[C@@H]1[C@@H](n1cnc3c(NC)nc(C#Cc4ccc(Cl)s4)nc31)[C@H](O)[C@@H]2O [Compound 32, (1S,2R,3S,4R,5S)-4-(2-((5-Chlorothiophen-2-yl)ethynyl)-6-(methylamino)-9H-purin-9-yl)-2,3-dihydroxy-N-methylbicyclo[3.1.0]hexane-1-carboxamide]
[2]
  inhibition at 10 µM: 6%
[28]; at 10 μM
  inhibition at 10 µM: 60 to 70%
[28]; off-target binding
  Ki: 1.4 µM
[29]
  GSH and GSSG levels in liver: no alteration
  Liver histology: remained normal
[5]
  inhibition at 10 µM: 24%
[22]; at 10 μM
  inhibition at 10 µM: 60 to 70%
[22]; read-out: Ki at Sigma-2 (σ2)
  Ki: 0.63 µM
[30]
  Analgesic effect of the A3AR agonist dose per se: no analgesic effects per se
[30]; mouse, in vivo
  Effect on opioid-induced hypersensitivity and analgesic tolerance: block opioid-induced hypersensitivity and analgesic tolerance
[6]
  inhibition at 10 µM: 7%
[31]
  Aq. Solubility (pH 7.4, μg/mL): 16.8 ± 1.1 μg/mL
[7]; 10 μM
  Increase of the level of radioligand ([3H]WIN35428) binding at the human DAT: 556%
[7]; compound at 10 μM
  Enhancement of radioligand binding at the dopamine transporter: ~5 ×
[8]; [39]
  half-life: > 480 min
[8]; [40]
  half-life: > 480 min
[32]; iv, i.v. 1 mg/kg
  half-life: 0.7 ± 0.3 h
[32]; po, p.o. 1 mg/kg
  half-life: 3.6 ± 0.4 h
[32]; po, p.o. 1 mg/kg, read-out: Cmax nM
  Cmax: 63 ± 19 nM
[32]; po, p.o. 1 mg/kg, read-out: Cmax ng/ml
  Cmax: 29 ± 8.6 ng/mL
[32]; po, p.o. 3 mg/kg
  half-life: 5.3 ± 0.8 h
[32]; po, p.o. 3 mg/kg, read-out: Cmax nM
  Cmax: 101 ± 53 nM
[32]; po, p.o. 3 mg/kg, read-out: Cmax ng/ml
  Cmax: 47 ± 24 ng/mL
[32]; po, p.o. 10 mg/kg
  half-life: 7.8 ± 2 h
[32]; po, p.o. 10 mg/kg, read-out: Cmax nM
  Cmax: 711 ± 125 nM
[32]; po, p.o. 10 mg/kg, read-out: Cmax ng/ml
  Cmax: 326 ± 57 ng/mL
[24]; at 10 μM
  inhibition at 10 µM: 60 to 70%
[10]
  half-life: 143 min
[33]
  % Unbound in plasma: Mouse: 6.40%
[34]
  Acute liver toxicity: no acute liver toxicity
[11]
  Off-target effects compared with MRS5698 and MRS5676: significantly fewer off-target effects
  Interactions at other receptors of the off-target panel: No interactions
[12]
  half-life: 230 min
[13]
  half-life: 128 min
[15]
  IC50: > 10 µM
[17]; 3 μmol/kg p.o., mice, 3 h
  Effect at 3 h (% ± SEM): 83 ± 11%
[17]; 3 μmol/kg p.o., mice
  Max. effect Emax (% ± SEM): 93 ± 7%
  Time of peak protection: 0.5 to 3 h
[17]
  Efficacy in reversing NP in vivo (of full reversal at peak effect): ~100%
[35]
  inhibition at 10 µM: 38%

## CNC(=O)[C@]12CC1[C@@H](n1cnc3c(NC)nc(C#Cc4ccc(Br)s4)nc31)[C@H](O)C2O (some centres unmarked) [compound 100]
[36]
  IC50: > 7 µM

## CNC(=O)[C@@]12C[C@@H]1[C@@H](n1cnc3c(NCc4cccc(Cl)c4)nc(C#Cc4ccc(F)c(F)c4)nc31)C(O)[C@H]2O (some centres unmarked) [MRS5698, reference compound]
[37]
  Findings after oral dosing: No abnormal findings
[30]
  Analgesic effect of the A3AR agonist dose per se: no analgesic effects per se
[7]
  Interaction with DAT: does not interact with DAT
[11]
  Interactions at other receptors of the off-target panel: No interactions at other receptors

## CNC(=O)[C@H]1O[C@@H](n2cnc3c(NCc4cccc(I)c4)ncnc32)[C@H](O)[C@@H]1O [IB-MECA]
[38]
  Effect on opioid dependence: block opioid dependence

— patent US10577368B2 (The United States of America, as represented by the …, priority 2013, dated 2020)
